Target: T1, TRAP1 enzyme (Homo sapiens, UniProt Q12931)
T1 construct: 150 nM Trap1 enzyme was incubated with various concentrations of the test compound
T1 sequence (Q12931 60-704): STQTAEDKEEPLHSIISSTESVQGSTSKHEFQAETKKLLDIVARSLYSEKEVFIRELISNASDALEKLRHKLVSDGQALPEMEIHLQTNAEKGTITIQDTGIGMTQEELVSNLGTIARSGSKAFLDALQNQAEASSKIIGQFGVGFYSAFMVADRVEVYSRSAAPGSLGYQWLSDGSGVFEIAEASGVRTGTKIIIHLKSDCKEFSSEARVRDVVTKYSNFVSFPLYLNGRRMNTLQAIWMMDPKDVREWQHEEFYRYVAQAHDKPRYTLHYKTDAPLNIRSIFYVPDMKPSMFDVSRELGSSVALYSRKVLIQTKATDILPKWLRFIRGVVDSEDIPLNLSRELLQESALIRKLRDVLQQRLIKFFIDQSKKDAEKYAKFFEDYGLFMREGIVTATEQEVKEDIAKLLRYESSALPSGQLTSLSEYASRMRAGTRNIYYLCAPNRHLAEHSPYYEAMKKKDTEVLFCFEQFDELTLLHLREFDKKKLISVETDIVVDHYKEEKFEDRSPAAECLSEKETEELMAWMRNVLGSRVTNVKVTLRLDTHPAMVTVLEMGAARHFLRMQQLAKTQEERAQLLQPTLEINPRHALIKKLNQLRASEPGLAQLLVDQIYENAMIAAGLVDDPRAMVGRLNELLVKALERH
Experiment: ADP Glo assay of TRAP1 ATPase activity
Assay type: biochemical
Conditions: for EC50: concentration for half maximal activation, read-out: ADP GLO DRC: GeoMean EC50; for Emax: maximal percent activation, read-out: ADP GLO DRC: Mean Emax; for activation at 50 µM: 1 h, compound concentration 50 μM, read-out: ADP-Glo Percent Activation at 50 μM
Summary of the method: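 ADP-Glo luminescence quantifying ADP from 150 nM TRAP1 preincubated 30 min at 37° C with compound (0.79–100 μM), then 20 μM ATP for 60 min at 37° C. Buffer: 25 mM Pipes pH 7.5, 40 mM KCl, 0.05 mM MgCl2, EGTA, BSA, detergents. ADP from ATP/ADP standard curve; Emax and EC50 from sigmoidal fit.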

| SMILES | EC50 [µM] | Emax [%] | activation at 50 µM [%] |
| --- | --- | --- | --- |
| COc1ncc(NC(=O)c2ncc(-c3ccccc3)o2)cc1S(=O)(=O)Nc1c(C)c(-c2ccccc2)nn1C [compound 1661] | 20 to 100 | 160 to 199 |  |
| COc1ncc(NC(=O)c2scnc2C)cc1S(=O)(=O)Nc1c(C)cccc1C [compound 2654] |  |  | 120 to 150 |
| COc1ncc(NC(=O)c2nn(C)c(C)c2Cl)cc1S(=O)(=O)Nc1c(C)cccc1C [compound 2710] |  |  | 181 to 352 |
| Cc1ncoc1C(=O)Nc1cc(S(=O)(=O)Nc2ccc(Cl)cc2)cc[n+]1[O-] [compound 1294, 4-(N-(4-chlorophenyl)sulfamoyl)-2-(4-methyloxazole-5-carboxamido)pyridine 1-oxide] | 20 to 100 | 119 to 159 |  |
| COc1ncc(NC(=O)c2coc(-c3cc(F)c(F)c(F)c3)n2)cc1S(=O)(=O)Nc1cccc(C(F)(F)F)n1 [compound 2151] | 20 to 100 | 200 to 300 |  |
| COc1ncc(NC(=O)c2ccnc(Br)c2)cc1S(=O)(=O)Nc1c(C)cccc1C [compound 1935, 1,2-bromo-N-(5-(N-(2,6-dimethylphenyl)sulfamoyl)-6-methoxypyridin-3-yl)isonicotinamide] | 20 to 100 | 200 to 300 |  |
| COc1ncc(NC(=O)c2ccc3c(c2)OCCN3C)cc1S(=O)(=O)Nc1c(C)cccc1C [compound 2576] |  |  | 181 to 352 |
| COc1ncc(NC(=O)c2csnn2)cc1S(=O)(=O)Nc1c(C)cccc1C [compound 2777] |  |  | 120 to 150 |
| COc1ncc(NC(=O)c2csc3c2CN(C(=O)OC(C)(C)C)CC3)cc1S(=O)(=O)Nc1c(C)cccc1C [compound 1949, tert-butyl 3-((5-(N-(2,6-dimethylphenyl)sulfamoyl)-6-methoxypyridin-3-yl)carbamoyl)-6,7-dihydrothieno[3,2-c]pyridine-5(4H)-carboxylate] | < 10 | 200 to 300 |  |
| COc1ncc(NC(=O)c2nc3ccccn3n2)cc1S(=O)(=O)Nc1c(C)cccc1C [compound 2558] |  |  | 151 to 180 |
| CCCc1cc(C(=O)Nc2cnc(OC)c(S(=O)(=O)Nc3c(C)cccc3C)c2)nn1C [compound 2618] |  |  | 181 to 352 |
| COc1ncc(NC(=O)c2csc(-c3ccccc3)n2)cc1S(=O)(=O)Nc1c(C#N)cccc1C(F)(F)F [compound 2068] | 20 to 100 | 200 to 300 |  |
| COc1ncc(NC(=O)c2cc(C)on2)cc1S(=O)(=O)Nc1c(C)cccc1C [compound 2738] |  |  | 151 to 180 |
| COc1ncc(NC(=O)c2ccccc2N2CCOCC2)cc1S(=O)(=O)Nc1c(C)cccc1C [compound 2602] |  |  | 151 to 180 |
| COc1ncc(NC(=O)c2ccc(N3CCCCC3)nc2)cc1S(=O)(=O)Nc1c(C)cccc1C [compound 2544] |  |  | 181 to 352 |
| COc1ncc(NC(=O)c2coc(-c3ccccc3)n2)cc1S(=O)(=O)Nc1ccc(F)cc1C [compound 1950, N-(5-(N-(4-fluoro-2-methylphenyl)sulfamoyl)-6-methoxypyridin-3-yl)-2-phenyloxazole-4-carboxamide] | < 10 | 119 to 159 |  |
| Cc1cnc(NC(=O)c2ncc(-c3ccccc3)o2)cc1S(=O)(=O)Nc1ccc(Cl)cc1 [compound 1390, N-(4-(N-(4-chlorophenyl)sulfamoyl)-5-methylpyridin-2-yl)-5-phenyloxazole-2-carboxamide] | 10 to 20 | 160 to 199 |  |
| COc1ncc(NC(=O)c2ccc(NS(C)(=O)=O)cc2)cc1S(=O)(=O)Nc1c(C)cccc1C [compound 2761] |  |  | 181 to 352 |
| COc1ncc(NC(=O)c2cnn(C)c2OC)cc1S(=O)(=O)Nc1c(C)cccc1C [compound 2762] |  |  | 120 to 150 |
| COc1ncc(NC(=O)c2ccc(Cn3cc(Cl)cn3)cc2)cc1S(=O)(=O)Nc1c(C)cccc1C [compound 1402, 4-((4-chloro-1H-pyrazol-1-yl)methyl)-N-(5(N (2,6dimethylphenyl)sulfamoyl)-6-methoxypyridin-3-yl)benzamide] | 10 to 20 | 160 to 199 |  |
| COc1ncc(NC(=O)c2ncc(-c3ccccc3)o2)cc1S(=O)(=O)Nc1ccc(F)cc1C(C)C [compound 1514] | < 10 | 160 to 199 |  |
| COc1ncc(NC(=O)c2ccc3ncnn3c2)cc1S(=O)(=O)Nc1c(C)cccc1C [compound 2537] |  |  | 120 to 150 |
| CCCc1nnsc1C(=O)Nc1cnc(OC)c(S(=O)(=O)Nc2c(C)cccc2C)c1 [compound 2714] |  |  | 181 to 352 |
| COc1ncc(NC(=O)c2sccc2C(F)(F)F)cc1S(=O)(=O)Nc1c(C)cccc1C [compound 2694] |  |  | 181 to 352 |
| COc1ncc(NC(=O)c2snnc2C)cc1S(=O)(=O)Nc1c(C)cccc1C [compound 2615] |  |  | 120 to 150 |

| SMILES | EC50 [µM] | Emax [%] | activation at 50 µM [%] |
| --- | --- | --- | --- |
| COc1ncc(NC(=O)c2ccn3ncnc3c2)cc1S(=O)(=O)Nc1c(C)cccc1C [compound 2567] |  |  | 120 to 150 |
| COc1ncc(NC(=O)c2c[nH]c(C(F)(F)F)n2)cc1S(=O)(=O)Nc1c(C)cccc1C [compound 2474] | 20 to 100 | 160 to 199 |  |
| COc1ncc(NC(=O)c2csc(-c3ccccc3)n2)cc1S(=O)(=O)Nc1ccccc1CO [compound 2004] | 10 to 20 | 160 to 199 |  |
| COc1ncc(NC(=O)c2cccc(CN3CCCCC3)c2)cc1S(=O)(=O)Nc1c(C)cccc1C [compound 2599] |  |  | 181 to 352 |
| COc1ncc(NC(=O)c2csc(-c3ccccc3)n2)cc1S(=O)(=O)Nc1cc(C(F)(F)F)ncc1C [compound 2365] | 20 to 100 | 200 to 300 |  |
| COc1ncc(NC(=O)c2cccc(-n3cncn3)c2)cc1S(=O)(=O)Nc1ccc(Cl)cc1 [compound 1204, N-(5-(N-(4-chlorophenyl)sulfamoyl)-6-methoxypyridin-3-yl)-3-(1H-1,2,4-triazol-1-yl)benzamide] | 10 to 20 | 160 to 199 |  |
| COc1ncc(NC(=O)c2coc(N3CCOCC3)n2)cc1S(=O)(=O)Nc1c(C)cccc1C [compound 2674] |  |  | 151 to 180 |
| COc1ncc(NC(=O)c2cc3c(s2)CCC3)cc1S(=O)(=O)Nc1c(C)cccc1C [compound 2792] |  |  | 120 to 150 |
| COc1ncc(NC(=O)c2cncs2)cc1S(=O)(=O)Nc1c(C)cccc1C [compound 2658] |  |  | 120 to 150 |
| COc1ncc(NC(=O)c2cnn(C)c2C(F)(F)F)cc1S(=O)(=O)Nc1c(C)cccc1C [compound 2678] |  |  | 151 to 180 |
| COc1ncc(NC(=O)c2ccccc2C)cc1S(=O)(=O)Nc1c(C)cccc1C [compound 2548] |  |  | 181 to 352 |
| CCOc1c(C(=O)Nc2cnc(OC)c(S(=O)(=O)Nc3c(C)cccc3C)c2)cnn1C [compound 2675] |  |  | 120 to 150 |
| COc1ncc(NC(=O)c2ncn(C(C)C)n2)cc1S(=O)(=O)Nc1c(C)cccc1C [compound 2611] |  |  | 120 to 150 |
| CCn1ccc(C(=O)Nc2cnc(OC)c(S(=O)(=O)Nc3c(C)cccc3C)c2)n1 [compound 2619] |  |  | 120 to 150 |
| COc1ncc(NC(=O)c2coc(-c3ccccc3)n2)cc1S(=O)(=O)Nc1c(C)ccc(C#N)c1C [compound 2072] | < 10 | 160 to 199 |  |
| COc1ncc(NC(=O)c2csc(-c3ccccc3)n2)cc1S(=O)(=O)Nc1cc(F)c(C)cc1C#N [compound 2155] | 10 to 20 | 200 to 300 |  |
| COc1ncc(NC(=O)c2nsnc2Cl)cc1S(=O)(=O)Nc1c(C)cccc1C [compound 2687] |  |  | 151 to 180 |
| COc1ncc(NC(=O)c2cnn(CC(F)(F)F)c2)cc1S(=O)(=O)Nc1c(C)cccc1C [compound 2684] |  |  | 120 to 150 |
| COc1ncc(NC(=O)c2cc(C)nn2C(F)F)cc1S(=O)(=O)Nc1c(C)cccc1C [compound 2646] |  |  | 151 to 180 |
| COc1ncc(NC(=O)c2cccc(CN3CCN(C)CC3)c2)cc1S(=O)(=O)Nc1c(C)cccc1C [compound 2715] |  |  | 120 to 150 |
| CCn1nc(C(=O)Nc2cnc(OC)c(S(=O)(=O)Nc3c(C)cccc3C)c2)cc1C [compound 2691] |  |  | 181 to 352 |
| Cc1c[n+]([O-])c(NC(=O)c2ncc(-c3ccccc3)o2)cc1S(=O)(=O)Nc1ccc(Cl)cc1 [compound 1420, 4-(N-(4-chlorophenyl)sulfamoyl)-5-methyl-2-(5-phenyloxazole-2-carboxamido) pyridine 1-oxide] | 10 to 20 | 119 to 159 |  |
| COc1ncc(NC(=O)c2cnn(C3CCOCC3)c2)cc1S(=O)(=O)Nc1c(C)cccc1C [compound 2587] |  |  | 120 to 150 |
| COc1ncc(NC(=O)c2nn(C)c3c2CCCC3)cc1S(=O)(=O)Nc1c(C)cccc1C [compound 1424, N-(5-(N-(2,6-dimethylphenyl)sulfamoyl)-6-methoxypyridin-3-yl)-1-methyl-4,5,6,7-tetrahydro-1H-indazole-3-carboxamide] | 10 to 20 | 200 to 300 |  |

— patent US20230159509A1 (Amathus Therapeutics, Inc., priority 2020, published 2023)
